Test results as given in US20050089488A1, “Deodorant composition with monocyclic, unsaturated sequiterpene alcohols and glyceryl monoalkyl ethers as synergistic active deodorant agents” (priority 2003, published 2005).

Key:
[1] = tested on: Staphylococcus aureus (ATCC 6538); assay: Surviving microorganisms after direct inoculation of gel formula; format: cell-based
Description: The antimicrobially synergistically effect of alpha bisabolol (Natural) for glyceryl monoalkyl ether was studied and the results are summarized in Tables 15 and 16, below. […] Subsequently the steareth-100, sodium stearate, and […] alcohol were added and the mixture cooled. […] The final compositions were then poured into containers and cooled to room temperature. […] Therefore following formula is gel type. Inoculate test microorganisms to provide a suspension containing from 105 to 106 microorganisms/ml and after 1 hr, 5 hr and 24 hr, check the surviving microorganisms by incubating in the soybean-casein digest agar for 24 hours at 32.5° C. the results are summarized below.

[2] = cited from earlier work
[3] = 0.3% by weight in ethanol base deodorant, versus triclosan; cited from earlier work
[4] = tested on: odor-causing gram positive bacteria; settings: cited from earlier work

| SMILES | anti-microbial activity alone ([1]; 0.2% by weight, with no ethylhexylglycerin) | effect on the anti-microbial activity of ethylhexylglycerin ([1]; combination with ethylhexylglycerin) | stability ([2]; against hydrolysis and elevated temperatures) | solubility in fats and organic solvents ([2]; fats, alcohols, glycols and glycol ethers) | solubility in water ([2]; water) | deodorant effectiveness [3] | anti-microbial activity against odor-causing gram positive bacteria [4] |
| --- | --- | --- | --- | --- | --- | --- | --- |
| CC(C)=CCC[C@](C)(O)[C@@H]1CC=C(C)CC1 [alpha bisabolol (Natural), alpha-bisabolol] | no anti-microbial activity | surprising and unexpected synergistic effect | – | – | – | – | – |
| CCCCC(CC)COCC(O)CO (stereo not shown) [Ethylhexylglycerin] | – | – | rather stable | completely soluble | 0.2% | just as effective as 0.1% by weight triclosan | very low |
